Calls of active or inactive are those of the source. The calls are words filed in the database; no cut-off is given here.
Assays:
Assay type in all cases: functional
[1] = Cytotoxicity against human Caki1 cells at 10 uM after 48 hrs by SRB assay; details: CAKI-1, 48 h, read-out: GI
[2] = Cytotoxicity against human RXF393 cells at 10 uM after 48 hrs by SRB assay; details: RXF 393, 48 h, read-out: GI
SN12C = assay: Cytotoxicity against human SN12C cells at 10 uM after 48 hrs by SRB assay; details: read-out: GI
[3] = Cytotoxicity against human TK10 cells at 10 uM after 48 hrs by SRB assay; details: TK-10, 48 h, read-out: GI
[4] = Cytotoxicity against human UO31 cells at 10 uM after 48 hrs by SRB assay; details: UO-31, 48 h, read-out: GI
[5] = Cytotoxicity against human PC3 cells at 10 uM after 48 hrs by SRB assay; details: PC-3, 48 h, read-out: GI
[6] = Cytotoxicity against human DU145 cells at 10 uM after 48 hrs by SRB assay; details: DU-145, 48 h, read-out: GI
MCF7 = assay: Cytotoxicity against human MCF7 cells at 10 uM after 48 hrs by SRB assay; details: MCF7, 48 h, read-out: GI
MDA-MB-231 = assay: Cytotoxicity against human MDA-MB-231 cells at 10 uM after 48 hrs by SRB assay; details: MDA-MB-231, 48 h, read-out: GI
[7] = Cytotoxicity against human Hs 578T cells at 10 uM after 48 hrs by SRB assay; details: read-out: GI
[8] = Cytotoxicity against human BT549 cells at 10 uM after 48 hrs by SRB assay; details: BT-549, 48 h, read-out: GI
T47D = assay: Cytotoxicity against human T47D cells at 10 uM after 48 hrs by SRB assay; details: read-out: GI
MDA-MB-468 = assay: Cytotoxicity against human MDA-MB-468 cells at 10 uM after 48 hrs by SRB assay; details: MDA-MB-468, 48 h, read-out: GI
CCRF-CEM = assay: Cytotoxicity against human CCRF-CEM cells at 10 uM after 48 hrs by SRB assay; details: read-out: GI
[9] = Cytotoxicity against human HL-60(TB) cells at 10 uM after 48 hrs by SRB assay; details: HL-60, 48 h, read-out: GI
K562 = assay: Cytotoxicity against human K562 cells at 10 uM after 48 hrs by SRB assay; details: K562, 48 h, read-out: GI
[10] = Cytotoxicity against human MOLT4 cells at 10 uM after 48 hrs by SRB assay; details: MOLT-4, 48 h, read-out: GI
[11] = Cytotoxicity against human RPMI8226 cells at 10 uM after 48 hrs by SRB assay; details: RPMI-8226, 48 h, read-out: GI
SR = assay: Cytotoxicity against human SR cells at 10 uM after 48 hrs by SRB assay; details: read-out: GI
A549 = assay: Cytotoxicity against human A549 cells at 10 uM after 48 hrs by SRB assay; details: A549, 48 h, read-out: GI
[12] = Cytotoxicity against human HOP62 cells at 10 uM after 48 hrs by SRB assay; details: HOP-62, 48 h, read-out: GI
[13] = Cytotoxicity against human HOP92 cells at 10 uM after 48 hrs by SRB assay; details: HOP-92, 48 h, read-out: GI
NCI-H226 = assay: Cytotoxicity against human NCI-H226 cells at 10 uM after 48 hrs by SRB assay; details: NCI-H226, 48 h, read-out: GI
NCI-H460 = assay: Cytotoxicity against human NCI-H460 cells at 10 uM after 48 hrs by SRB assay; details: NCI-H460, 48 h, read-out: GI
NCI-H522 = assay: Cytotoxicity against human NCI-H522 cells at 10 uM after 48 hrs by SRB assay
COLO 205 = assay: Cytotoxicity against human COLO205 cells at 10 uM after 48 hrs by SRB assay
[14] = Cytotoxicity against human HCC2998 cells at 10 uM after 48 hrs by SRB assay; details: HCC 2998, 48 h, read-out: GI
[15] = Cytotoxicity against human HCT116 cells at 10 uM after 48 hrs by SRB assay; details: HCT-116, 48 h, read-out: GI
[16] = Cytotoxicity against human HCT15 cells at 10 uM after 48 hrs by SRB assay; details: HCT-15, 48 h, read-out: GI
HT-29 = assay: Cytotoxicity against human HT-29 cells at 10 uM after 48 hrs by SRB assay; details: HT-29, 48 h, read-out: GI
KM12 = assay: Cytotoxicity against human KM12 cells at 10 uM after 48 hrs by SRB assay; details: KM12, 48 h, read-out: GI
[17] = Cytotoxicity against human SW620 cells at 10 uM after 48 hrs by SRB assay; details: SW-620, 48 h, read-out: GI
[18] = Cytotoxicity against human SF268 cells at 10 uM after 48 hrs by SRB assay; details: SF-268, 48 h, read-out: GI
[19] = Cytotoxicity against human SF295 cells at 10 uM after 48 hrs by SRB assay; details: SF-295, 48 h, read-out: GI
[20] = Cytotoxicity against human SF539 cells at 10 uM after 48 hrs by SRB assay; details: SF-539, 48 h, read-out: GI
[21] = Cytotoxicity against human SNB19 cells at 10 uM after 48 hrs by SRB assay; details: SNB-19, 48 h, read-out: GI
[22] = Cytotoxicity against human SNB75 cells at 10 uM after 48 hrs by SRB assay; details: SNB-75, 48 h, read-out: GI
[23] = Cytotoxicity against human LOXIMVI cells at 10 uM after 48 hrs by SRB assay; details: LOX IMVI, read-out: GI
Malme-3M = assay: Cytotoxicity against human MALME-3M cells at 10 uM after 48 hrs by SRB assay
M14 = assay: Cytotoxicity against human M14 cells at 10 uM after 48 hrs by SRB assay
MDA-MB-435 = assay: Cytotoxicity against human MDA-MB-435 cells at 10 uM after 48 hrs by SRB assay; details: MDA-MB-435, 48 h, read-out: GI
SK-MEL-2 = assay: Cytotoxicity against human SK-MEL-2 cells at 10 uM after 48 hrs by SRB assay
SK-MEL-28 = assay: Cytotoxicity against human SK-MEL-28 cells at 10 uM after 48 hrs by SRB assay
SK-MEL-5 = assay: Cytotoxicity against human SK-MEL-5 cells at 10 uM after 48 hrs by SRB assay; details: SK-MEL-5, 48 h, read-out: GI
[24] = Cytotoxicity against human UACC257 cells at 10 uM after 48 hrs by SRB assay; details: UACC-257, 48 h, read-out: GI
[25] = Cytotoxicity against human UACC62 cells at 10 uM after 48 hrs by SRB assay; details: UACC-62, 48 h, read-out: GI
[26] = Cytotoxicity against human IGROV1 cells at 10 uM after 48 hrs by SRB assay; details: IGROV-1, 48 h, read-out: GI
[27] = Cytotoxicity against human OVCAR3 cells at 10 uM after 48 hrs by SRB assay; details: OVCAR-3, 48 h, read-out: GI
[28] = Cytotoxicity against human OVCAR4 cells at 10 uM after 48 hrs by SRB assay; details: OVCAR-4, 48 h, read-out: GI
[29] = Cytotoxicity against human OVCAR5 cells at 10 uM after 48 hrs by SRB assay; details: OVCAR-5, 48 h, read-out: GI
[30] = Cytotoxicity against human OVCAR8 cells at 10 uM after 48 hrs by SRB assay; details: OVCAR-8, 48 h, read-out: GI
[31] = Cytotoxicity against human NCI-ADR-RES cells at 10 uM after 48 hrs by SRB assay; details: read-out: GI
[32] = Cytotoxicity against human SKOV3 cells at 10 uM after 48 hrs by SRB assay; details: SK-OV-3, 48 h, read-out: GI
786-0 = assay: Cytotoxicity against human 786-0 cells at 10 uM after 48 hrs by SRB assay; details: 786-0, 48 h, read-out: GI
A498 = assay: Cytotoxicity against human A498 cells at 10 uM after 48 hrs by SRB assay; details: A498, 48 h, read-out: GI
ACHN = assay: Cytotoxicity against human ACHN cells at 10 uM after 48 hrs by SRB assay; details: read-out: GI

Cc1nc2cc(Nc3nc(Cl)nc(Nc4ccc(F)cc4)n3)ccc2n1Cc1ccccc1
inhibition of growth at 10 µM [1]: 12.3% | inhibition of growth at 10 µM [2]: 22.9% | inhibition of growth at 10 µM (SN12C): 22.1% | inhibition of growth at 10 µM [3]: 41.5% | inhibition of growth at 10 µM [4]: 19.3% | inhibition of growth at 10 µM [5]: 21.2% | inhibition of growth at 10 µM [6]: 36% | inhibition of growth at 10 µM (MCF7): 38.5% | inhibition of growth at 10 µM (MDA-MB-231): 17.9% | inhibition of growth at 10 µM [7]: 20.5% | inhibition of growth at 10 µM [8]: 9.39% | inhibition of growth at 10 µM (T47D): 43% | inhibition of growth at 10 µM (MDA-MB-468): 23.8% | inhibition of growth at 10 µM (CCRF-CEM): 21.5% | inhibition of growth at 10 µM [9]: 46.8% | inhibition of growth at 10 µM (K562): 14.8% | inhibition of growth at 10 µM [10]: 9.41% | inhibition of growth at 10 µM [11]: 84.7% | inhibition of growth at 10 µM (SR): 42.5% | inhibition of growth at 10 µM (A549): 13.3% | inhibition of growth at 10 µM [12]: 11.6% | inhibition of growth at 10 µM [13]: 49.3% | inhibition of growth at 10 µM (NCI-H226): 19.6% | inhibition of growth at 10 µM (NCI-H460): 12% | growth inhibition (GI) (NCI-H522): Active | growth inhibition (GI) (COLO 205): inactive | inhibition of growth at 10 µM [14]: 5.54% | inhibition of growth at 10 µM [15]: 96.1% | inhibition of growth at 10 µM [16]: 27.9% | inhibition of growth at 10 µM (HT-29): 5.46% | inhibition of growth at 10 µM (KM12): 30.8% | inhibition of growth at 10 µM [17]: 15.2% | inhibition of growth at 10 µM [18]: 8.93% | inhibition of growth at 10 µM [19]: 3.61% | inhibition of growth at 10 µM [20]: 29.8% | inhibition of growth at 10 µM [21]: 7.64% | inhibition of growth at 10 µM [22]: 10% | inhibition of growth at 10 µM [23]: 56.7% | growth inhibition (GI) (Malme-3M): inactive | growth inhibition (GI) (M14): inactive | inhibition of growth at 10 µM (MDA-MB-435): 4.44% | growth inhibition (GI) (SK-MEL-2): inactive | growth inhibition (GI) (SK-MEL-28): inactive | inhibition of growth at 10 µM (SK-MEL-5): 7.59% | inhibition of growth at 10 µM [24]: 10.3% | inhibition of growth at 10 µM [25]: 17.6% | inhibition of growth at 10 µM [26]: 17% | inhibition of growth at 10 µM [27]: 5.75% | inhibition of growth at 10 µM [28]: 14.2% | inhibition of growth at 10 µM [29]: 3.73% | inhibition of growth at 10 µM [30]: 18.5% | inhibition of growth at 10 µM [31]: 4.36% | inhibition of growth at 10 µM [32]: 4.12% | inhibition of growth at 10 µM (786-0): 67% | inhibition of growth at 10 µM (A498): 30.6% | inhibition of growth at 10 µM (ACHN): 63.8%
